The text below walks through data of patent US20250114345A1, “COMPOUNDS AND COMPOSITIONS AS CBP/P300 DEGRADERS AND USES THEREOF” (Oncopia Therapeutics, Inc. d/b/a/ SK Life Science Labs, priority 2023, published 2025).

A word on the Dmax: it is the largest share of the target that was removed. Read a low Dmax as shallow degradation. A word on the DC50: it is the midpoint of the concentration-degradation curve. Low readings indicate a more potent degrader, high ones a less potent degrader.

Molecules are shown by their SMILES.

The target of this test is T1, p300 (Homo sapiens, UniProt Q09472).
T1 construct: host or cells: A549 P300 HiBit cells
T1 sequence (Q09472 whole entry): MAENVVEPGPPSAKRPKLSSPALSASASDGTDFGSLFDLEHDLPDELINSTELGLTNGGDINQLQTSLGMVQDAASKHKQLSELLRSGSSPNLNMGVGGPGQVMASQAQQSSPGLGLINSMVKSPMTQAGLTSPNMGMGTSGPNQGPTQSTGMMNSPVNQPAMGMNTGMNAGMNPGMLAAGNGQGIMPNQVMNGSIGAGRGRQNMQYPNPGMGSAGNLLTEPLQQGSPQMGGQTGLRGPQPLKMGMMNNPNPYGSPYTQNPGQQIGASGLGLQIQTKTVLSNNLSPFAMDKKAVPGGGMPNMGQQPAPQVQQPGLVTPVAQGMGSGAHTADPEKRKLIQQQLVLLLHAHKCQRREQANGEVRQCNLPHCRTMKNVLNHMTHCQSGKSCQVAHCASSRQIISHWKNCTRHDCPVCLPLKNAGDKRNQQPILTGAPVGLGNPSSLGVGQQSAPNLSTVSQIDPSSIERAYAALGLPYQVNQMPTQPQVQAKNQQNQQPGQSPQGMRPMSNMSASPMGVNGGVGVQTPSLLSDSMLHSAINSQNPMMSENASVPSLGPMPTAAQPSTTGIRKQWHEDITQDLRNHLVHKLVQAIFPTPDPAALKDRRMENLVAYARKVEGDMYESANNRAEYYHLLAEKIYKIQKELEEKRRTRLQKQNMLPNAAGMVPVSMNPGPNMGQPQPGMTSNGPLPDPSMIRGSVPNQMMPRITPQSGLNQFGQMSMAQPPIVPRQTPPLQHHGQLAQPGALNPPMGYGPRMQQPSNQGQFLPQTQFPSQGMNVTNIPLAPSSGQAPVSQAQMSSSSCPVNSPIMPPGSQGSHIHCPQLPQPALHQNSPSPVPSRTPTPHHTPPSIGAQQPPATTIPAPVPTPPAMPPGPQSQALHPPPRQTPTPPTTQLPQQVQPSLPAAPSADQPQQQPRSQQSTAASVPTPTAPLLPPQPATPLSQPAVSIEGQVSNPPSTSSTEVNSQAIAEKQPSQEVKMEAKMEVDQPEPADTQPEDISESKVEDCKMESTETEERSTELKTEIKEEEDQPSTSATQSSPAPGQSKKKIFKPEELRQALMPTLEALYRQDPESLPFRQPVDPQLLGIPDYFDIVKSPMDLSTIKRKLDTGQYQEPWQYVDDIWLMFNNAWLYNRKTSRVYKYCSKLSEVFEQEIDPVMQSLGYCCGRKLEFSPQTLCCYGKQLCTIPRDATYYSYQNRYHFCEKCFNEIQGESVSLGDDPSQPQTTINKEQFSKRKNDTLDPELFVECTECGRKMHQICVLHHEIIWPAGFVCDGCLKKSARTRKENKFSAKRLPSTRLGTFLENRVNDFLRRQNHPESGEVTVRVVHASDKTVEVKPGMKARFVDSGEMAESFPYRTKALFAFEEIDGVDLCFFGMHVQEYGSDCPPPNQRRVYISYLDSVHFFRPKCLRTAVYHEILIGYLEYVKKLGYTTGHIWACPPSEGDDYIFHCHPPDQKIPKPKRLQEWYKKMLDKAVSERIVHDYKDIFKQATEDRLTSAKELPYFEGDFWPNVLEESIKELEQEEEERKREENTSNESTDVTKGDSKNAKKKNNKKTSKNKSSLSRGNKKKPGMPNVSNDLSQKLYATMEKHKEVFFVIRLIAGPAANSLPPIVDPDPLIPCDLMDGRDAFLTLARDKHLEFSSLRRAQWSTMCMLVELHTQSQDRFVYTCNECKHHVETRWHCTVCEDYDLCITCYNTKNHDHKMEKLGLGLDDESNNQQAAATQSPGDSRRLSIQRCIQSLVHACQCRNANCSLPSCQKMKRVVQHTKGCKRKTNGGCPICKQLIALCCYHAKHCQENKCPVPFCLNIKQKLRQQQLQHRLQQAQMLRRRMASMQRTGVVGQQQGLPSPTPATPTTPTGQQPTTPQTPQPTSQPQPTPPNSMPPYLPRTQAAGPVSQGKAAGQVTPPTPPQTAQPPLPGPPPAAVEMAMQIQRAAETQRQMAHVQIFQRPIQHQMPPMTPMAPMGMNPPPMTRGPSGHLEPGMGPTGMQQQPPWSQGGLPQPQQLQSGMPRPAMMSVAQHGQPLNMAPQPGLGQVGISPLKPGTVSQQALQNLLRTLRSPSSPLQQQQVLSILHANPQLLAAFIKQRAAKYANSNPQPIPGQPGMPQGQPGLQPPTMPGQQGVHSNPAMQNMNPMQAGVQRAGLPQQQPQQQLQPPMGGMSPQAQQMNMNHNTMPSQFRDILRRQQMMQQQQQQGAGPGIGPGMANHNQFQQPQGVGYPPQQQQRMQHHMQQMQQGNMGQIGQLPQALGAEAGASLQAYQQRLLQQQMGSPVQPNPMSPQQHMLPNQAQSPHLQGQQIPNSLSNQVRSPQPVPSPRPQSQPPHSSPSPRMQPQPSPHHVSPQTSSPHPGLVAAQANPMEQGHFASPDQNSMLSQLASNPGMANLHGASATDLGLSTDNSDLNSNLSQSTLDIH
Nature of the test: P300 degradation, HiBit technology in A549 P300 HiBit cells (2 h). The note with it: 2 hrs post treatment; for Dmax: A549, A549 P300 HiBit cells; for DC50: A549 P300 HiBit cells. The test is classed as cell-based. The protocol:
p300 and CBP degradation potency and Dmax were determined using in cell western (ICW) assay technology in H1299 cells or HiBit technology in A549 HiBit cells.
A549 P300 HiBit and A549 CBP HiBit cells were plated in separate 384-well, TC treated, white-opaque, flat-bottomed microplate. Cells were plated at a cell density of 0.2×10^4 cells per well in assay media comprised of F-12K, 10% heat inactivated FBS, and 1% penicillin/streptomycin. Assay microplates containing HiBit cells were placed in a 37° C., 5% CO2, tissue culture incubator and left to equilibrate overnight. The next day cells were treated with serial dilutions of test compound made up of 10 mM stock solutions in DMSO. 384-Well plates containing treated cells were then placed back into a 37° C., 5% CO2, tissue culture incubator. Assay microplates containing A549 P300 HiBit cells were incubated for 2 hrs post treatment before P300 destruction was assessed, while microplates containing A549 CBP HiBit cells were incubated for 24 hrs post treatment before CBP destruction was determined. On the day of each assay time point, microplates were removed from the tissue culture incubator and prepared HiBit Lytic detection buffer (Promega, cat #N3O40) was added to each plate. Plates were covered with aluminum foil and incubated for ten minutes at room temperature on an orbital shaker. After incubation, luminescent signal of each plate was measured using the Envision instrument (Perkin Elmer).

As for `Cn1c(=O)oc2cc(N3CCOc4nc(-c5ccc(C(=O)NCC#Cc6ccc7occ(C8CCC(=O)NC8=O)c7c6)nc5)ncc43)ccc21` (stereo not shown) [Example A144, N-(3-(3-(2,6-dioxo-piperidin-3-yl)benzofuran-5-yl)prop-2-yn-1-yl)-5-(5-(3-methyl-2-oxo-2,3-dihydrobenzo[d]oxazol-6-yl)-6,7-dihydro-5H-pyrimido [4,5-b][1,4]oxazin-2-yl)picolinamide], the Dmax is below 20% and the DC50 was above 1000 nM.
The molecule `Cc1cc(-c2ccc(N(c3cc(C(C)C)c4c(c3)n(C)c(=O)n4C)C(F)(F)F)cn2)cnc1C(=O)NCC#Cc1cccc(NC2CCC(=O)NC2=O)c1` (stereo not shown) [Example A52, N-(3-(3-((2,6-dioxopiperidin-3-yl)amino)phenyl)prop-2-yn-1-yl)-5-((7-isopropyl-1,3-dimethyl-2-oxo-2,3-dihydro-1H-benzo [d]imidazol-5-yl) (trifluoromethyl)amino)-5′-methyl-[2,3′-bipyridine]-6′-carboxamide] came in with a Dmax of 60 to 79% and a DC50 of 100 to 999 nM.
On the same counts, the results for `COc1nc(-c2cnc(C(=O)NCC#Cc3cc4c(C5CCC(=O)NC5=O)cccc4o3)c(C)c2)ncc1N(C)c1cc(C2CCOCC2)c2c(c1)n(C)c(=O)n2C` (stereo not shown) [Example A167, 5-(5-((1,3-dimethyl-2-oxo-7-(tetrahydro-2H-pyran-4-yl)-2,3-dihydro-1H-benzo[d]imidazol-5-yl)(methyl)amino)-4-methoxypyrimidin-2-yl)-N-(3-(4-(2,6-dioxopiperidin-3-yl)benzofuran-2-yl)prop-2-yn-1-yl)-3-methylpicolinamide] are 60 to 79% and 1 to 9.9 nM.
`CCc1cc(-c2cccc3cc(-c4ccc(C(=O)NCC#Cc5cc(C)c6cnn(C7CCC(=O)NC7=O)c6c5)nc4)ncc23)c2cc(C)c(=O)n(C)c2c1` (stereo not shown) [Example B6, N-(3-(1-(2,6-Dioxopiperidin-3-yl)-4-methyl-1H-indazol-6-yl)prop-2-yn-1-yl)-5-(8-(7-ethyl-1,3-dimethyl-2-oxo-1,2-dihydroquinolin-5-yl)isoquinolin-3-yl)picolinamide] showed a Dmax of 60 to 79% and a DC50 of 10 to 99 nM.
Turning to `CC(C)c1cc(-c2cccc3cc(-c4ccc(C(=O)NCC#Cc5cc(C#N)c6cnn(C7CCC(=O)NC7=O)c6c5)nc4)ncc23)cc2c1n(C)c(=O)n2C` (stereo not shown) [Example A21, N-(3-(4-Cyano-1-(2,6-dioxopiperidin-3-yl)-1H-indazol-6-yl)prop-2-yn-1-yl)-5-(8-(7-isopropyl-1,3-dimethyl-2-oxo-2,3-dihydro-1H-benzo[d]imidazol-5-yl)isoquinolin-3-yl)picolinamide], the Dmax fell in the range of 60 to 79% and the DC50 is 100 to 999 nM.
For `Cc1cc(-c2ncc(N(C)c3cc(C(C)C)c4c(c3)n(C)c(=O)n4C)cc2Cl)cnc1C(=O)NCC#Cc1ccc2occ(C3CCC(=O)NC3=O)c2c1` (stereo not shown) [Example A116, 3-chloro-N-(3-(3-(2,6-dioxopiperidin-3-yl)benzofuran-5-yl)prop-2-yn-1-yl)-5-((7-isopropyl-1,3-dimethyl-2-oxo-2,3-dihydro-1H-benzo [d]imidazol-5-yl)(methyl)amino)-5′-methyl-[2,3′-bipyridine]-6′-carboxamide], in that order: above 80% and 1 to 9.9 nM.
With `Cc1cc(-c2ncc(N(C)c3cc(N4CCOCC4)c4oc(=O)n(C)c4c3)cn2)cnc1C(=O)NCC#Cc1ccc2occ(C3CCC(=O)NC3=O)c2c1` (stereo not shown) [Example A80, N-(3-(3-(2,6-dioxo-piperidin-3-yl)benzofuran-5-yl)prop-2-yn-1-yl)-3-methyl-5-(5-(methyl (3-methyl-7-morpholino-2-oxo-2,3-dihydrobenzo [d]oxazol-5-yl)amino)pyrimidin-2-yl)picolinamide], the Dmax was below 20% and the DC50 is above 1000 nM.
Turning to `Cn1c(=O)n(C)c2c(F)cc(N3CCOc4nc(-c5ccc(C(=O)NCC#Cc6cc7c(C8CCC(=O)NC8=O)cccc7o6)nc5)ncc43)cc21` (stereo not shown) [Example A265, N-(3-(4-(2,6-dioxo-piperidin-3-yl)benzofuran-2-yl)prop-2-yn-1-yl)-5-(5-(7-fluoro-1,3-dimethyl-2-oxo-2,3-dihydro-1H-benzo[d]imidazol-5-yl)-6,7-dihydro-5H-pyrimido[4,5-b][1,4]oxazin-2-yl)picolinamide], the Dmax fell in the range of 20 to 39% and the DC50 was in the range of 10 to 99 nM.
In turn, `Cc1cc(-c2cc3cccc(-c4ccc5c(c4)n(C)c(=O)n5C)c3cn2)cnc1C(=O)NCC#Cc1ccc2occ([C@H]3CCC(=O)NC3=O)c2c1` [Example A62, (R)-5-(8-(1,3-dimethyl-2-oxo-2,3-dihydro-1H-benzo[d]imidazol-5-yl)isoquinolin-3-yl)-N-(3-(3-(2,6-dioxo-piperidin-3-yl)benzofuran-5-yl)prop-2-yn-1-yl)-3-methylpicolinamide] yielded a Dmax above 80% and a DC50 of 1 to 9.9 nM.
As for `CC(C)c1cc(N2CCCc3cc(-c4ccc(C(=O)NCC#Cc5ccc6occ(C7CCC(=O)NC7=O)c6c5)nc4)c(C(F)F)cc32)cc2c1n(C)c(=O)n2C` (stereo not shown) [Example A151, 5-(7-(difluoromethyl)-1-(7-isopropyl-1,3-dimethyl-2-oxo-2,3-dihydro-1H-benzo[d]imidazol-5-yl)-1,2,3,4-tetrahydroquinolin-6-yl)-N-(3-(3-(2,6-dioxopiperidin-3-yl)benzofuran-5-yl)prop-2-yn-1-yl)picolinamide], the Dmax is above 80% and the DC50 fell in the range of 1 to 9.9 nM.
The molecule `CCc1cc(Oc2ccc(-c3cnc(C(=O)NCC#Cc4cccc(NC5CCC(=O)NC5=O)c4)c(C)c3)nc2)c2cc(C)c(=O)n(C)c2c1` (stereo not shown) [Example B17, N-(3-(3-((2,6-Dioxopiperidin-3-yl)amino)phenyl)prop-2-yn-1-yl)-5-((7-ethyl-1,3-dimethyl-2-oxo-1,2-dihydroquinolin-5-yl)oxy)-5′-methyl-[2,3′-bipyridine]-6′-carboxamide] registered a Dmax below 20% and a DC50 above 1000 nM.
On the same counts, the results for `Cc1cc2c(N3CCCc4nc(-c5ccc(C(=O)NCC=C=Cc6ccc7occ(C8CCC(=O)NC8=O)c7c6)nc5)ncc43)cc(C3CCOCC3)cc2n(C)c1=O` (stereo not shown) [Example B116, 5-(5-(1,3-dimethyl-2-oxo-7-(tetrahydro-2H-pyran-4-yl)-1,2-dihydroquinolin-5-yl)-5,6,7,8-tetrahydropyrido[3,2-d]pyrimidin-2-yl)-N-(4-(3-(2,6-dioxopiperidin-3-yl)benzofuran-5-yl)buta-2,3-dien-1-yl)picolinamide] are 40 to 59% and 10 to 99 nM.
`CC(C)c1cc(-c2cccc3cc(-c4ccc(C(=O)NCC#Cc5ccc6c(C#N)cn(C7CCC(=O)NC7=O)c6c5)nc4)ncc23)cc2c1n(C)c(=O)n2C` (stereo not shown) [Example A19, N-(3-(3-Cyano-1-(2,6-dioxopiperidin-3-yl)-1H-indol-6-yl)prop-2-yn-1-yl)-5-(8-(7-isopropyl-1,3-dimethyl-2-oxo-2,3-dihydro-1H-benzo[d]imidazol-5-yl)isoquinolin-3-yl)picolinamide] registered a Dmax of 60 to 79% and a DC50 of 100 to 999 nM.
For `Cc1cc2c(N3CCOc4cc(-c5ccc(C(=O)NCC#Cc6ccc7occ(C8CCC(=O)NC8=O)c7c6)nc5)c(F)cc43)cccc2n(C)c1=O` (stereo not shown) [Example B145, 5-(4-(1,3-dimethyl-2-oxo-1,2-dihydroquinolin-5-yl)-6-fluoro-3,4-dihydro-2H-benzo[b][1,4]oxazin-7-yl)-N-(3-(3-(2,6-dioxopiperidin-3-yl)benzofuran-5-yl)prop-2-yn-1-yl) picolinamide], in that order: above 80% and 1 to 9.9 nM.
